Data taken from patent publication US8030043B2, “β-galactoside-α2,3-sialyltransferase, a gene encoding thereof, and a method for producing thereof” (Japan Tobacco Inc., priority 2005, dated 2011).

How the values were obtained:
[1] = tested on: α2,3-sialyltransferase derived from strain JT-ISH-467; experiment: Sialic acid transfer to monosaccharides and disaccharides by partially purified α2,3-sialyltransferase (CMP-14C-NeuAc donor, radioactivity of column eluate); assay type: biochemical, Photobacterium phosphoreum; conditions: 25° C., 4 hours, acceptor 10 μmol (200 mM), CMP-14C-NeuAc 400 nmol, sialyltransferase 0.13 mU, NaCl 500 mM
Description: A cell homogenate prepared from the strain JT-ISH-467 was partially purified by ion exchange chromatography, hydroxyapatite chromatography, and gel filtration chromatography. The thus partially purified α2,3-sialyltransferase was used in the following experiment in order to confirm the transfer of sialic acid to various monosaccharides and disaccharides.
The enzymatic reaction was carried out at 25° C. for 4 hours in a reaction solution (24 μl) prepared to contain CMP-^14C-NeuAc as a glycosyl donor substrate (400 nmol (15600 cpm), final concentration in the reaction solution: 16.6 mM), any of various glycosyl acceptor substrates (10 μmol, final concentration in the reaction solution: 200 mM), sialyltransferase (0.13 mU) and NaCl (final concentration in the reaction solution: 500 mM). The monosaccharides and disaccharides used as glycosyl acceptor substrates were the following 6 substances: methyl-α-D-galactopyranoside (Gal-α-OMe), methyl-β-D-galactopyranoside (Gal-β-OMe), N-acetylgalactosamine (GalNAc), lactose (Gal-β1,4-Glc), N-acetyllactosamine (Gal-β1,4-GlcNAc), and methyl-β-D-galactopyranosyl-β-1,3-N-acetylglucosaminide (Gal-β1,3-GlcNAc-β-OMe).
(§1) After completion of the enzymatic reaction, 1.98 ml of 5 mM phosphate buffer (pH 6.8) was added to the reaction solution to stop the enzymatic reaction. Then, the enzymatic reaction solution was diluted with 5 mM phosphate buffer (pH 6.8) and applied in a volume of 2 ml to a AG1-×2 Resin (PO4^3− form, 0.2×2 cm) column. This column was prepared as follows: AG1-×2 Resin (OH^− form, BIO-RAD) was suspended in 1 M phosphate buffer (pH 6.8), and after 30 minutes, the resin was washed with distilled water and then suspended in distilled water. The eluate (0 to 2 ml) from this column was measured for its radioactivity. The eluate from this column contains the unreacted glycosyl acceptor substrate and the ^14C-NeuAc (N-acetylneuraminic acid)-bound reaction product which was generated by the reaction, but unreacted CMP-^14C-NeuAc is still retained on the column. Thus, the radioactivity of ^14C from each sialic acid-containing sugar chain generated as a result of the enzymatic reaction arises exclusively from the reaction product, so that the radioactivity of this fraction can be used to calculate the enzyme activity.
(§2) In the manner described above, the radioactivity of NeuAc transferred to each glycosyl acceptor substrate was measured to calculate the amount of transferred sialic acid.

[2] = tested on: ISH224-N1C0 recombinant β-galactoside-α2,3-sialyltransferase; experiment: Acceptor substrate specificity of recombinant β-galactoside-α2,3-sialyltransferase (mono-, di-, trisaccharides); assay type: biochemical, Photobacterium sp.
Description: (§3) Cell homogenates prepared from E. coli cells introduced with the third clone of ISH467-N2C0, the first clone of ISH224-N1C0 and the first clone of FAJ-N1C0 were each purified by ion exchange chromatography and hydroxyapatite chromatography to give an electrophoretically single band. The thus purified β-galactoside-α2,3-sialyltransferases were used in the following experiment in order to examine the presence or absence of sialyltransferase activity toward various monosaccharides, disaccharides and trisaccharides.
(§4) A reaction solution (24 μl) was prepared to contain CMP-^14C-NeuAc-containing CMP-NeuAc as a glycosyl donor substrate ([…], final concentration in the reaction solution: […]), any of various glycosyl acceptor substrates dissolved in 20 mM cacodylate buffer (pH 5.0) (1 μmol, final concentration in the reaction solution: 42 mM), sialyltransferase (in an amount as indicated in the footnotes of the tables below) and NaCl (final concentration in the reaction solution: 500 mM), and reacted under conditions as indicated in the footnotes of the tables below. The monosaccharides used as glycosyl acceptor substrates were the following 10 types: methyl-α-D-galactopyranoside (Gal-α-OMe), methyl-(β-D-galactopyranoside (Gal-β-OMe), methyl-α-D-glucopyranoside (Glc-α-OMe), methyl-β-D-glucopyranoside (Glc-β-OMe), methyl-α-D-mannopyranoside (Man-α-OMe), methyl-β-D-mannopyranoside (Man-β-OMe), methyl-α-D-fucopyranoside (Fuc-α-OMe), methyl-β-D-fucopyranoside (Fuc-β-OMe), N-acetylgalactosamine (GalNAc), and N-acetylglucosamine ([…]). The disaccharides used were the following 5 types: lactose (Gal-β1,4-Glc), N-acetyllactosamine (Gal-β1,4-GlcNAc), methyl-β-D-galactopyranosyl-β1,3-N-acetylglucosaminide (Gal-β1,3-GlcNAc-β-OMe), methyl-α-D-galactopyranosyl-α1,3-galactopyranoside (Gal-α-1,3-Gal-α-OMe), and methyl-β-D-galactopyranosyl-β1,3-galactopyranoside (Gal-β1,3-Gal-β-OMe). The trisaccharide used was 2′-fucosyllactose (Fuc-α1,2-Galβ1,4-Glc). It should be noted that the final concentration was set to 8.4 mM for the sugar chains shown in Table 18, i.e., methyl-α-D-galactopyranosyl-α1,3-galactopyranoside (Gal-α1,3-Gal-α-OMe), methyl-β-D-galactopyranosyl-β1,3-galactopyranoside (Gal-β1,3-Gal-β-OMe) and 2′-fucosyllactose (Fuc-α1,2-Gal-β1,4-Glc).
as §1, with “a AG1−×2” for “a AG1-×2”, “follows: AG1-x 2” for “follows: AG1-×2”, “unreacted CMP-14C-NeuAc” for “unreacted CMP-^14C-NeuAc”
as §2

[3] = tested on: ISH467-N2C0 recombinant β-galactoside-α2,3-sialyltransferase; experiment: as above; assay type: biochemical, Photobacterium phosphoreum
Description: as §3, §4
as §1, with “a AG1−×2” for “a AG1-×2”, “follows: AG1-x 2” for “follows: AG1-×2”, “unreacted CMP-14C-NeuAc” for “unreacted CMP-^14C-NeuAc”
as §2

[4] = tested on: FAJ-N1C0 recombinant β-galactoside-α2,3-sialyltransferase; experiment: Acceptor substrate specificity of recombinant β-galactoside-α2,3-sialyltransferase (mono-, disaccharides); assay type: biochemical, Vibrio sp.; set-up: FAJ-N1C0 Sialyltransferase activity Relative activity (%): tested at 42 mM; conditions: 20° C., 14 hours; for FAJ-N1C0 Sialyltransferase activity: Table 16: 1 μmol acceptor, pH 5.0, about 2.5 mU enzyme; for FAJ-N1C0 Sialyltransferase activity Relative activity (%): Table 16: activity toward lactose set to 100
Description: as §3, §4
as §1, with “a AG1−×2” for “a AG1-×2”, “follows: AG1-x 2” for “follows: AG1-×2”, “unreacted CMP-14C-NeuAc” for “unreacted CMP-^14C-NeuAc”
as §2

[5] = Table 16: 1 μmol acceptor, pH 5.0, about 2.5 mU enzyme, 20° C., 14 hours
[6] = Table 16: activity toward lactose set to 100, 20° C., 14 hours
[7] = Table 17: 1 μmol acceptor, pH 5.0, 1.0 mU per reaction, 30° C., 0.5 minutes or 2 minutes
[8] = Table 17: activity toward lactose set to 100, 30° C., 0.5 minutes or 2 minutes
[9] = Table 17: 1 μmol acceptor, pH 5.0, 2.3 mU per reaction, 30° C., 0.5 minutes or 2 minutes
[10] = Table 18: activity toward lactose set to 100, 0.2 μmol acceptor, 30° C., 2 minutes

Compound | Amount of transferred sialic acid [1] | Amount of transferred sialic acid ([1]; listed as Gal-β1,4-GlcNAc) | ISH224-N1C0 Sialyltransferase activity [2, 5] | ISH224-N1C0 Sialyltransferase activity Relative activity (%) [2, 6] | ISH224-N1C0 Sialyltransferase activity [2, 7] | ISH224-N1C0 Sialyltransferase activity Relative activity (%) [2, 8] | ISH467-N2C0 Sialyltransferase activity [3, 5] | ISH467-N2C0 Sialyltransferase activity Relative activity (%) [3, 6] | ISH467-N2C0 Sialyltransferase activity [3, 9] | ISH467-N2C0 Sialyltransferase activity Relative activity (%) [3, 8] | FAJ-N1C0 Sialyltransferase activity [4] | FAJ-N1C0 Sialyltransferase activity Relative activity (%) [4] | ISH224-N1C0 Sialyltransferase activity ([2]; Table 18: 0.2 μmol acceptor (8.4 mM), pH 5.0, 1.0 mU per reaction, 30° C., 2 minutes) | ISH224-N1C0 Sialyltransferase activity Relative activity (%) [2, 10] | ISH467-N2C0 Sialyltransferase activity ([3]; Table 18: 0.2 μmol acceptor (8.4 mM), pH 5.0, 23 mU per reaction, 30° C., 2 minutes) | ISH467-N2C0 Sialyltransferase activity Relative activity (%) [3, 10]
CC(=O)N[C@H]1C(O)O[C@H](CO)[C@@H](O[C@@H]2O[C@H](CO)[C@H](O)[C@H](O)[C@H]2O)[C@@H]1O (stereo partly drawn) [Lactosamine, N-acetyllactosamine] | highest in amount of transferred sialic acid | 74.9 nmol | 9.7 nmol/min | 115% | 0.99 nmol/min | 96% | 9.2 nmol/min | 118% | 2.36 nmol/min | 103% | 9.6 nmol/min | 127% | – | – | – | –
OC[C@H]1O[C@@H](O[C@H]2[C@H](O)[C@@H](O)C(O)O[C@@H]2CO)[C@H](O)[C@@H](O)[C@H]1O (stereo partly drawn) [Lactose, lactose] | 57.9 nmol | – | 8.4 nmol/min | 100% | 1.03 nmol/min | 100% | 7.8 nmol/min | 100% | 2.29 nmol/min | 100% | 7.6 nmol/min | 100% | 1.51 nmol/min | 100% | 1.64 nmol/min | 100%
CO[C@H]1O[C@H](CO)[C@H](O)[C@H](O)[C@H]1O [Methylαgalactopyranoside, methyl-α-D-galactopyranoside] | 60.0 nmol | – | 9.5 nmol/min | 113% | 8.49 nmol/min | 823% | 10.5 nmol/min | 134% | 10.38 nmol/min | 452% | 10.3 nmol/min | 135% | – | – | – | –
CO[C@@H]1O[C@H](CO)[C@H](O)[C@H](O)[C@H]1O [Methylβgalactopyranoside, methyl-β-D-galactopyranoside] | 50.2 nmol | – | 8.9 nmol/min | 105% | 3.54 nmol/min | 343% | 9.1 nmol/min | 116% | 5.77 nmol/min | 251% | 8.7 nmol/min | 114% | – | – | – | –
CC(=O)N[C@H]1C(O)O[C@H](CO)[C@H](O)[C@@H]1O (stereo partly drawn) [N-Acetylgalactosamine, N-acetylgalactosamine] | 37.8 nmol | – | 5.8 nmol/min | 69% | 0.78 nmol/min | 76% | 5.4 nmol/min | 69% | 0.99 nmol/min | 43% | 4.4 nmol/min | 58% | – | – | – | –
